Experiments:
Assay in all cases: relative viability (nuclei count vs DMSO), 5 days (fraction); higher = more cells survive
[1] = compound: Cn1cc(-c2cnc3ccc4ccc(CS(=O)(=O)NCc5ccccn5)cc4c(=O)c3c2)cn1 [MK-8033] + C[C@@H](Oc1cc(-c2cnn(C3CCNCC3)c2)cnc1N)c1c(Cl)ccc(F)c1Cl [Crizotinib] (partner 1 µM)
Summary of the method: (§1)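 Lung cancer cell lines, seeded in 1536-well plates, were treated the following day by pin tool with a single drug or with five library-drug doses (not always all listed) in √10 steps on top of a fixed anchor-drug dose. Cells were fixed and nuclei stained in one step after 5 days, and nuclei were counted. Relative viability is the nuclei count for treated wells divided by that for vehicle wells, reported as medians of duplicate plates.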

[2] = compound: Cn1cc(-c2cnc3ccc4ccc(CS(=O)(=O)NCc5ccccn5)cc4c(=O)c3c2)cn1 [MK-8033] + N=C(N)NC(=N)NCCc1ccccc1 [Phenformin] (partner 250 µM)
Summary of the method: as §1

[3] = compound: CCc1c2c(nc3ccc(OC(=O)N4CCC(N5CCCCC5)CC4)cc13)-c1cc3c(c(=O)n1C2)COC(=O)[C@]3(O)CC [Irinotecan] + CCNC(=O)c1noc(-c2cc(C(C)C)c(O)cc2O)c1-c1ccc(CN2CCOCC2)cc1 [Luminespib] (partner 0.01 µM)
Summary of the method: as §1

[4] = compound: Cn1cc(-c2cnc3ccc4ccc(CS(=O)(=O)NCc5ccccn5)cc4c(=O)c3c2)cn1 [MK-8033] + CCNC(=O)c1noc(-c2cc(C(C)C)c(O)cc2O)c1-c1ccc(CN2CCOCC2)cc1 [Luminespib] (partner 0.01 µM)
Summary of the method: as §1

| Cell Line | relative viability ([1]; first compound 0.02 µM) | relative viability ([1]; first compound 0.06325 µM) | relative viability ([1]; first compound 0.2 µM) | relative viability ([1]; first compound 2 µM) | relative viability ([2]; first compound 0.02 µM) | relative viability ([2]; first compound 0.2 µM) | relative viability ([2]; first compound 0.6325 µM) | relative viability ([2]; first compound 2 µM) | relative viability ([3]; first compound 0.6325 µM) | relative viability ([3]; first compound 2 µM) | relative viability ([3]; first compound 6.325 µM) | relative viability ([3]; first compound 20 µM) | relative viability ([4]; first compound 0.02 µM) | relative viability ([4]; first compound 0.06325 µM) | relative viability ([4]; first compound 0.2 µM) | relative viability ([4]; first compound 0.6325 µM) | relative viability ([4]; first compound 2 µM) | relative viability ([1]; first compound 0.6325 µM) | relative viability ([2]; first compound 0.06325 µM) |
| --- | --- | --- | --- | --- | --- | --- | --- | --- | --- | --- | --- | --- | --- | --- | --- | --- | --- | --- | --- |
| HCC-78 | 0.336 | 0.316 | 0.344 | 0.32 | 0.806 | 0.668 | 0.728 | 0.799 | – | – | – | – | – | – | – | – | – | – | – |
| NCI-H441 | 0.753 | 0.646 | 0.681 | 0.691 | 0.997 | 0.645 | 0.955 | 0.732 | 0.231 | 0.332 | 0.304 | 0.309 | 0.403 | 0.375 | 0.352 | 0.336 | 0.305 | 0.778 | 0.739 |
| NCI-H1299 | 0.956 | 0.925 | 0.92 | 0.971 | – | – | – | – | – | – | – | – | – | – | – | – | – | 0.946 | – |
| LU99A | 0.692 | 0.542 | 0.619 | 0.525 | 0.859 | 0.773 | 0.845 | 0.751 | 0.174 | 0.184 | 0.206 | 0.207 | 0.24 | 0.272 | 0.258 | 0.177 | 0.241 | 0.491 | 0.747 |
| NCI-H1651 | 0.852 | 0.832 | 0.846 | 0.862 | 0.429 | 0.346 | 0.312 | 0.304 | 0.573 | 0.522 | 0.281 | 0.2 | 1.02 | 0.846 | 0.733 | 0.853 | 0.874 | 0.938 | 0.29 |
| HARA | 0.964 | 1.05 | 0.921 | 1.04 | 0.477 | 0.396 | 0.374 | 0.422 | 0.0995 | 0.29 | 0.147 | 0.111 | 0.675 | 0.621 | 0.681 | 1.03 | 0.557 | 1.08 | 0.406 |
| RERF-LC-KJ | 0.867 | 0.849 | 0.769 | 0.79 | 0.406 | 0.431 | 0.434 | 0.364 | 0.692 | 0.567 | 0.461 | 0.224 | 1.14 | 1.14 | 1.25 | 1.24 | 1.06 | 0.825 | 0.368 |
| LCLC-103H | 1.02 | 0.926 | 0.99 | 1.04 | 0.378 | 0.314 | 0.355 | 0.396 | 0.83 | 0.502 | 0.348 | 0.501 | 0.95 | 0.927 | 0.954 | 0.866 | 0.952 | 1.06 | 0.334 |

— the supplement of paper PMC10307832
